# Data reported in US9795810B2, “Propylene glycol/glycerin-based deodorant” (COLGATE-PALMOLIVE COMPANY, priority 2007, dated 2017).
# Test system: Corynebacterium minutissimum
# Assay: Zone of Inhibition test on inoculated agar plates
# Type: cell-based
# Settings: for Zone of Inhibition (mm): from the edge of 2 cm disk, 0.2 g stick or approx. 0.6 g neat, 37° C., 48 hrs
# Protocol: A commercially available regular Mennen Speed Stick (MSS) deodorant stick, an Ultimate Mennen Speed Stick deodorant stick (containing triclosan as a control) and the PG-free deodorant stick containing glycerin were tested with a Zone Of Inhibition test using 2 cm Webril® (Fiberweb, Gray Court, S.C.) cotton disks on inoculated plates. Also, as controls: water, neat (undiluted) PG and neat glycerin were tested.
# Zone of Inhibition Test method: To the disks was added 0.2 g of the stick products or approximately 0.6 g (enough to just saturate the disk) of the neat controls. The disks were then inverted and placed face down on an inoculated agar plate. The agar plates were streaked beforehand (30 minutes) such that a bacterial lawn of Corynebacterium minutissimum at a concentration of 10^6/ml was created covering the entire plate surface. The plates were then incubated at 37° C. for 48 hrs.
# Zones of inhibition were measured in millimeters (mm) from the edge of the disk. A greater zone equals increased bacterial growth inhibition.
smiles,measurement,value
"CC(O)CO (stereo not drawn) [PG neat, propylene glycol]",Zone of Inhibition (mm),2.5 mm
"OCC(O)CO [Glycerin neat, glycerin]",Zone of inhibition result in words,small zone
same,Zone of Inhibition (mm),1 mm
